What all share (assay type): cell-based
In test [1] the test system is human chondrocyte cell line (SW1353). Description: Hyaluronic acid production test (ELISA). The following applies: positive control 10 mmol/L. As to the method:
Using proliferation medium (DMEM/F-12 supplemented with 10% FBS and 1% penicillin-streptomycin mixture), a human chondrocyte cell line (SW1353, ATCC, HTB-94) was seeded into a T-75 flask and cultured in a CO2 incubator until 60-80% confluency. The cells were then detached from the T-75 flask using 0.25% trypsin-EDTA and phenol red. Subsequently, using the proliferation medium, the human chondrocytes were seeded into a 96-well plate at a density of 10,000 cells/100 μL/well and cultured in a CO2 incubator.
The following day, the medium was replaced with 100 μL of assay medium (DMEM/F-12 supplemented with 1% FBS and 1% penicillin-streptomycin mixture), containing each of test substances 1 through 7 at final concentrations of 5% and 20% or a positive control substance at a final concentration of 10 mmol/L, or assay medium without test substances or positive control. The human chondrocytes were cultured in a CO2 incubator for 24 or 72 hours.
The culture supernatant was collected, and the amount of hyaluronic acid was measured using an ELISA kit (Hyaluronan Quantikine ELISA Kit, R&D Systems) and a multi-spectral microplate reader (Varioskan Flash, Thermo Fisher Scientific).
In general terms: In an ELISA, binding on a coated surface is turned into a signal by an enzyme label.

Test [2] has as its system normal human umbilical vein endothelial cells. Description: Prostacyclin production test (6-keto prostaglandin Fla ELISA). The following applies: positive control 10 μM, 24 hours. As to the method: Normal human umbilical vein endothelial cells (Lonza, CC2519AS) were seeded into a T-75 flask using medium (EGM-2, Lonza, CC-3162) and cultured in a CO2 incubator until 60% to 80% confluence. The cells were then detached from the T-75 flask using 0.05% trypsin-EDTA and phenol red. The detached cells were seeded into a 96-well plate at 10,000 cells/100 μL/well in medium and cultured in a CO2 incubator. The next day, the medium was replaced with 100 μL of medium containing test substances 1 through 7 at final concentrations of 5% and 20%, and the positive control substance at a final concentration of 10 μM, or medium without test or positive control substances. The cells were then cultured for 24 hours in a CO2 incubator. The culture supernatant was collected, and the amount of 6-keto prostaglandin Fla, a metabolite of prostacyclin, was measured using an ELISA kit (Abcam, ab133023) and a multi-spectral microplate reader (Varioskan Flash, Thermo Fisher Scientific).

For test [3], the system named is adipocytes differentiated from normal human subcutaneous preadipocytes. Nature of the test: Fat-decomposing assay (free glycerol in culture supernatant). The conditions noted are these: positive control 10 μM, 24 hours. As to the method:
Normal human subcutaneous preadipocytes (Lonza, PT-5020) were seeded into a T-75 flask using a proliferation medium (PGM-2, 10% FBS, 2 mM L-glutamine, 50 μg/mL gentamicin, and 37 ng/mL amphotericin B-supplemented PBM, Lonza, PT-8002) and cultured in a CO2 incubator (37° C., 5% CO2, humidified) until they reached 60% to 80% confluence. The cells were then detached using 0.25% trypsin-EDTA and centrifuged. Subsequently, the cells were seeded into a 96-well plate at 10,000 cells/100 μL/well in proliferation medium and incubated in a CO2 incubator. The following day, the medium was replaced with 100 μL of differentiation medium (PGM-2 supplemented with insulin, dexamethasone, indomethacin, and isobutyl-methylxanthine; Lonza, PT-8002), and the cells were cultured for seven days to induce differentiation of preadipocytes into adipocytes. […] Thereafter, the culture supernatant was collected, and the amount of free glycerol in the supernatant was measured using a fat-decomposing assay kit (Cayman, 10009381). […] Specifically, a multi-spectral microplate reader (Varioskan Flash, Thermo Fisher Scientific) was used to measure the absorbance of the supernatant at a wavelength of 540 nm, and the relative concentration of free glycerol was calculated. […]

In test [4] the test system is normal human skeletal muscle myoblasts. Nature of the test: Myotube differentiation promotion test (anti-MHC staining, differentiation index). The following applies: positive control 50 nmol/L, 3 days. As to the method:
Using proliferation medium (SkGM-2, Lonza, CC-3245), normal human skeletal muscle myoblasts (Lonza, CC-2580) were seeded into a T-75 flask and cultured in a CO2 incubator until approximately 60% confluence. The cells were then detached from the T-75 flask using 0.05% trypsin-EDTA and phenol red. The detached cells were seeded into a 96-well plate at 7,500 cells/100 μL/well in proliferation medium and cultured in a CO2 incubator.
The next day, the medium was replaced with 100 μL of differentiation medium (2% horse serum-supplemented DMEM: F12) containing test substances 1 through 7 at final concentrations of 5% and 20% and the positive control substance at a final concentration of 50 nmol/L, or differentiation medium without test or positive control substances. The cells were then cultured for 3 days in a CO2 incubator to induce differentiation of myoblasts into myotubes.
Subsequently, the medium was removed from the wells, and 100 μL of 4% paraformaldehyde at 4° C. was added to each well, followed by incubation at 4° C. for 15 minutes to fix the cells. […]
From the captured images, the number of cell nuclei and the number of nuclei positive for myosin heavy chain were measured, and the differentiation index I (%) was calculated according to formula (1) below. […]

On to `CC(=O)N[C@H]1C(O)O[C@H](CO)[C@@H](O)[C@@H]1O` (some centres unmarked) [N-acetylglucosamine], for which the “hyaluronic acid production compared to the control” value in test [1] (cultured 24 hours) and in test [1] (cultured 72 hours) was “significantly higher” in each case.
As for `CCCCC/C=C\C/C=C\C/C=C\C/C=C\CCCC(=O)O` [arachidonic acid], the “levels of 6-keto prostaglandin Fla compared to the control” value in test [2] is “significantly higher”.
In the case of `CC(C)NCC(O)c1ccc(O)c(O)c1` (centres unmarked) [isoproterenol], the “amount of fat-decomposition (free glycerol) compared to the control” value in test [3] is listed as “significantly higher”.
For the compound insulin, the “differentiation index to myotubes compared to the control” value in test [4] is given as “significantly higher”.

Source of the values: patent publication US20250127821A1, “PHARMACEUTICAL COMPOSITION AND COSMETIC COMPOSITION” (I Peace, Inc., priority 2023, published 2025).
